Tests used:
U-937 (lymphoma) = experiment: 72-hour IC50 toward U-937 cancer cell line; assay type: cell-based; settings: Homo sapiens
Text: (§1) Compounds prepared according to the methods described herein have been screened for activity against various cancer cell lines.

HeLa (cervical) = experiment: 72-hour IC50 toward HeLa cancer cell line; assay type: cell-based; settings: Homo sapiens
Text: as §1

H1299 (NSC lung) = experiment: 72-hour IC50 toward H1299 cancer cell line; assay type: cell-based; settings: Homo sapiens, NCI-H1299
Text: as §1

MCF7 (breast) = experiment: 72-hour IC50 toward MCF7 cancer cell line; assay type: cell-based; settings: Homo sapiens
Text: as §1

B16F10 (melanoma) = experiment: 72-hour IC50 toward B16F10 cancer cell line; assay type: cell-based; settings: Mus musculus, B16-F10
Text: as §1

EL-4 (lymphoma) = experiment: 72-hour IC50 toward EL-4 cancer cell line; assay type: cell-based
Text: as §1

A549 (lung) = experiment: 72-hour IC50 toward A549 cancer cell line; assay type: cell-based; settings: Homo sapiens
Text: as §1

caspase = experiment: Western blot for caspase activation; assay type: cell-based; settings: Western blot (FIG. 11)
[1] = tested on: EL-4 syngeneic mouse model; experiment: Tumor volume in EL-4 syngeneic mouse model; assay type: in vivo; settings: 2 treatments at 30 mg/kg over one week and a final treatment at 20 mg/kg after the first week, p=0.023, n=8
U-937 cells = experiment: Non-apoptotic cell death of U-937 cells; assay type: cell-based; settings: U-937 cells (FIG. 12)
Text: FIG. 12. Non-apoptotic cell death of U-937 cells by compound GA-4.

| Compound | IC50 (U-937 (lymphoma)) [µM] | IC50 (HeLa (cervical)) [µM] | IC50 (H1299 (NSC lung)) [µM] | IC50 (MCF7 (breast)) [µM] | IC50 (B16F10 (melanoma)) [µM] | IC50 (EL-4 (lymphoma)) [µM] | IC50 (A549 (lung)) [µM] | caspase activation (caspase) | reduction in tumor volume [1] [%] | non-apoptotic cell death (U-937 cells) |
| --- | --- | --- | --- | --- | --- | --- | --- | --- | --- | --- |
| C=C1C[C@]23C[C@@]1(O)CC[C@H]2[C@@]12C=CC(=O)C(C)(C(=O)O1)[C@H]2[C@@H]3C(=O)OC [GA-4] | 0.56 ± 0.18 | 1.14 ± 0.03 | 2.4 ± 0.8 | 4.8 ± 1.3 | 1 ± 0.4 | 0.85 ± 0.09 | 5.9 ± 0.05 | lack of caspase activation | 43 | remarkable amounts of non-apoptotic cell death |
| COC(=O)[C@H]1[C@@H]2C3(C)C(=O)C=C[C@@]2(OC3=O)[C@@H]2CC[C@@]3(CBr)C[C@]21CC3=O [GA-81] | 1.78 ± 0.09 | 4.9 ± 0.09 | – | – | – | – | 4.5 ± 0.09 | – | – | – |

Source: patent US10800730B2, “Complex and structurally diverse compounds” (The Board of Trustees of the University of Illinois, priority 2012, dated 2020)
